Common to all, as to test: NCI anticancer screen, dose series, 48 h
Assay [1] deals with 786-0 renal.
Assay [2] concerns M14 melanoma.
Assay [3] concerns SR leukemia.
Assay [4] has as its system K-562 leukemia.
Assay [5] has as its system HT29 colon.
Assay [6] concerns LOX IMVI melanoma.
Assay [7] concerns HCC-2998 colon.
Assay [8] has as its system U251 CNS.
The subject of assay [9] is RXF 393 renal.

Molecules are shown by their SMILES.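 Protocol summary: plate cells (96-well), add compound at 5 concentrations, incubate 48 h, interpolate endpoints linearly. The concentration for 50% growth inhibition is given as GI50. At the TGI there is no net growth.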

Turning to `CCOC(=O)/C=C1\Nc2ccccc2C(c2ccccc2)=NC1OC(C)=O` (configuration not stated), the TGI in [1], in [2], in [3], in [4], in assay [5] and in [6] was over 100 µM in each case. For the same compound, the TGI in [7] and in assay [8] was over 100 µM in each case.
`CC1=NN(C(=O)CC(=O)Nc2cccc(Cl)c2)C(=O)C1N=Nc1ccc(S(N)(=O)=O)cc1` (configuration not stated): the TGI in assay [1], in assay [2], in assay [3], in assay [9], in [5] and in assay [6] was over 100 µM in each case. The TGI in [7] and in [8] was over 100 µM in each case.
As for `COC(=O)/C(=N\NC(=O)c1ccccc1O)C(C#N)c1ccc(Cl)cc1` (configuration not stated), the TGI is over 100 µM in [1]; over 100 µM in assay [2]; over 100 µM in [3]; 79.8 µM in assay [9]; over 100 µM in [4]; over 100 µM in assay [5]. In addition, the TGI in [7] is 88.7 µM; in assay [8], over 100 µM.
Regarding `C/C(=N\NS(=O)(=O)c1ccc(C)cc1)c1ccc[n+]([O-])n1`, the TGI in [1], in assay [2], in [3], in assay [4], in [5] and in assay [7] was over 100 µM in each case. This compound also yielded a TGI in assay [8] of over 100 µM.
Consider `COc1cc2ccn3c4cc(OC)c(OC)cc4cc3c2cc1OC`, for which the TGI in assay [1], in [2], in assay [3], in assay [4], in assay [5] and in assay [7] was over 100 µM throughout. The compound further displayed a TGI in assay [8] of over 100 µM.
Take `c1ccc2c(c1)CCCc1cc3ccccc3nc1-2`: the TGI in [1], in [2], in assay [4], in assay [5], in assay [7] and in [8] was over 100 µM in each case.
`O=c1c2ccccc2nc(-c2ccccc2)n1NCC1(O)OCC(O)C(O)C1O` (configuration not stated): the TGI in assay [1], in assay [2], in [4], in assay [5], in assay [7] and in assay [8] was over 100 µM throughout.
Consider `CC(C)c1ccc(/C=C(\NC(=O)c2ccccc2)c2nc3ccccc3[nH]2)cc1`, for which the TGI in assay [1], in assay [2], in assay [9], in assay [4], in assay [5] and in [6] was over 100 µM in each case. In assay [8], this compound registered a TGI of over 100 µM.
As to `CC(=O)NC1C(OCc2ccccc2)OC(COC(=O)CCCCCCCCCCNC(=O)c2cccc3c(=O)c4ccccc4[nH]c23)C(O)C1OC(C)C(=O)NC(C)C(=O)NC(CCC(N)=O)C(N)=O` (configuration not stated), the TGI in assay [1], in assay [2], in assay [3], in assay [4], in [5] and in assay [6] was over 100 µM throughout. Besides, the TGI in [8] is over 100 µM.
With `S=C(Nc1ccccc1)Nc1[nH]c(=S)sc1-c1nc2ccccc2[nH]1`, the TGI in [1], in assay [2], in assay [9], in assay [4], in assay [5] and in assay [6] was over 100 µM in each case. Further, the TGI in [7] and in assay [8] was over 100 µM throughout.
As for `CC(C)OP(=O)(OC(C)C)C(N(C)C)P(=O)(OC(C)C)OC(C)C.[Cl][Sn]([Cl])([Cl])[c]1ccccc1`, the GI50 is 2.84 µM in assay [1]; 2.81 µM in assay [9]; 2.26 µM in assay [4]; 0.923 µM in assay [5]; 2.26 µM in assay [6]; 1.79 µM in assay [7]. In assay [8], the GI50 is 4.47 µM. In addition, the TGI came to 12.3 µM in assay [1]; 11.4 µM in [9]; 5.62 µM in assay [4]; 12.8 µM in [5]; 6.97 µM in assay [6]; 7.46 µM in assay [7]. The compound further gave a TGI in [8] of over 100 µM.
In the case of `Cc1nnc2n1N=C(CC(=O)c1ccc(O)cc1O)CN2N`, the TGI in [1], in assay [2], in [9], in [4], in assay [5] and in assay [6] was over 100 µM each time. Besides, the TGI in assay [7] and in assay [8] was over 100 µM each time.
Regarding `O=C1OCC(C(=O)c2cccc(O)c2)C1=O` (configuration not stated), the TGI in assay [1], in assay [2], in assay [9], in assay [5], in assay [6] and in assay [7] was over 100 µM in each case. In assay [8], this compound returned a TGI of over 100 µM.
Turning to `O=C(O)c1cc(Cl)cc(NC(=O)C(Cl)Cl)c1Cl`, the TGI in [1], in assay [2], in assay [9], in assay [4], in assay [5] and in assay [6] was over 100 µM in each case. Moreover, the TGI in [7] and in assay [8] was over 100 µM throughout.
Turning to `Clc1ccc2c(Cl)ncnc2c1`, the TGI in [1], in [2], in assay [3], in assay [4], in [5] and in assay [6] was over 100 µM each time. Also, the TGI in assay [7] and in assay [8] was over 100 µM throughout.
Consider `CC(=O)[CH-]C(=O)c1ccccc1.CC(=O)[CH-]C(=O)c1ccccc1.[O]=[U+2]=[O]`, for which the GI50 in assay [1] was 40.2 µM; in [2], 35.8 µM; in assay [9] it was 34 µM; in [4], 37.3 µM; in assay [5] it was 23.4 µM; in assay [6] it was 25.4 µM. Also, the figures for the GI50 in [7] and in [8] were 18.7 µM and 35.5 µM, respectively. Besides, the TGI was over 100 µM in assay [1]; over 100 µM in assay [2]; over 100 µM in assay [9]; over 100 µM in assay [4]; 57.4 µM in assay [5]; over 100 µM in assay [6]. For the same compound, the TGI in assay [7] is 65.4 µM; in assay [8] it was over 100 µM.
Turning to `COC(=O)C12CC(C3CC31)C1CC12` (configuration not stated), the TGI in assay [1], in assay [2], in assay [3], in [4], in assay [5] and in assay [6] was over 100 µM in each case. In addition, the TGI in [7] and in assay [8] was over 100 µM each time.
Regarding `CC(C)OP(=O)(CP(=O)(OC(C)C)OC(C)C)OC(C)C.[CH3][Sn]([Br])([Br])[Br]`, the GI50 in assay [1], in assay [9], in assay [4], in [5], in assay [6] and in assay [7] was over 100 µM in each case. Also, the GI50 in assay [8] was over 100 µM. Besides, the TGI in assay [1], in assay [9], in assay [4], in [5], in [6] and in assay [7] was over 100 µM each time. Moreover, in assay [8], the TGI is over 100 µM.
Regarding `CC1OC(=O)N(CCCC=C2SCCCS2)C1=O` (configuration not stated), the TGI in [1], in assay [2], in assay [9], in [4], in assay [5] and in assay [6] was over 100 µM each time. The compound further returned a TGI in assay [8] of over 100 µM.
With `COC(=O)/C(C#N)=C1\N=NNN1CCCN1CCOCC1`, the TGI in [1], in [2], in [9], in [4], in assay [5] and in assay [6] was over 100 µM throughout. Also, the TGI in [7] and in [8] was over 100 µM in each case.
As to `CN1CC2(CCCCC2)C(O)C12C=CCCC2` (configuration not stated), the TGI in assay [1], in assay [2], in assay [9], in [4], in [5] and in assay [6] was over 100 µM throughout. Further, the TGI in assay [7] and in assay [8] was over 100 µM in each case.
For the compound `CCOC(=O)CCC1(C(=O)OC)CCCC1=O` (configuration not stated), the TGI in assay [1], in assay [9], in assay [4], in assay [5], in assay [6] and in assay [7] was over 100 µM each time. For the same compound, the TGI in [8] is over 100 µM.
On to `CCC1OCCN1C(C)C` (configuration not stated), for which the TGI in [1], in [3], in assay [9], in [4], in assay [6] and in assay [7] was over 100 µM throughout. Moreover, the TGI in assay [8] was over 100 µM.

Source of the values: PubChem BioAssay (NCI).
